Activity calls are given as the source filed them. The rule behind the calls is not given here.
Experiments:
[1] = test system: BV-2; assay: Anti-inflammatory activity against mouse BV-2 cells assessed as reduction in LPS-induced iNOS expression pretreated for 3 hrs followed by LPS addition measured after 24 hrs by Western blot analysis; format: functional, cell-based; conditions: dose 3-30 µM, time 27.0 hrs
[2] = test system: BV-2; assay: Anti-inflammatory activity against mouse BV-2 cells assessed as inhibition of LPS-induced NF-kappaB p65 nuclear entry at 3 to 30 uM pretreated for 3 hrs followed by LPS addition measured after 24 hrs by Western blot analysis; format: functional, cell-based; conditions: dose 3-30 µM, time 27.0 hrs
[3] = test system: Caenorhabditis elegans; assay: Antioxidant activity in Caenorhabditis elegans CL4176 expressing human amyloid-beta peptide assessed as decrease in ROS level at 50 uM incubated for 7 days by H2DCF-DA probe based analysis relative to control; format: functional; parameters: scale not given: the % may be the effect or the level left; conditions: time 7 day
[4] = test system: BV-2; assay: Anti-inflammatory activity against mouse BV-2 cells assessed as inhibition of LPS-induced NO production pretreated for 3 hrs followed by LPS addition measured after 24 hrs by Griess reagent based assay; format: functional, cell-based
[5] = test system: BV-2; assay: Anti-inflammatory activity against mouse BV-2 cells assessed as reduction in LPS-induced COX-2 expression pretreated for 3 hrs followed by LPS addition measured after 24 hrs by immunofluorescence based analysis; format: functional, cell-based; conditions: dose 3-30 µM
[6] = test system: BV-2; assay: Anti-inflammatory activity against mouse BV-2 cells assessed as reduction in LPS-induced COX-2 expression pretreated for 3 hrs followed by LPS addition measured after 24 hrs by Western blot analysis; format: functional, cell-based; conditions: dose 3-30 µM, time 27.0 hrs
[7] = test system: PC-12; assay: Neuroprotective activity against 6-OHDA-induced neurotoxicity in rat PC-12 cells at 5 to 40 uM incubated for 24 hrs by MTT assay; format: functional, cell-based; conditions: dose 5-40 µM
[8] = test system: Caenorhabditis elegans; assay: Antialzheimer activity in transgenic Caenorhabditis elegans CL4176 expressing human amyloid-beta peptide assessed as decrease in paralysis rate at 25 uM incubated for 14 hrs; format: functional, organism-based
[9] = test system: PC-12; assay: Neuroprotective activity against H2O2-induced neurotoxicity in rat PC-12 cells incubated for 24 hrs by MTT assay; format: functional, cell-based; conditions: dose 5-40 µM
[10] = test system: BV-2; assay: Anti-inflammatory activity against mouse BV-2 cells assessed as inhibition of LPS-induced JNK activation at 30 uM pretreated for 3 hrs followed by LPS addition measured after 24 hrs; format: functional, cell-based; conditions: time 27.0 hrs
[11] = test system: Caenorhabditis elegans; assay: Antialzheimer activity in transgenic Caenorhabditis elegans CL4176 expressing human amyloid-beta peptide assessed as decrease in paralysis rate at 12.5 uM incubated for 14 hrs relative to control; format: functional; parameters: scale not given: the % may be the effect or the level left
[12] = test system: PC-12; assay: Neuroprotective activity against H2O2-induced neurotoxicity in rat PC-12 cells at 5 to 40 uM incubated for 24 hrs by MTT assay; format: functional, cell-based; conditions: dose 5-40 µM
[13] = test system: PC-12; assay: Neuroprotective activity against H2O2-induced neurotoxicity in rat PC-12 cells assessed as increase in catalase level at 2.5 to 40 uM by Western blot analysis; format: functional, cell-based; conditions: dose 2.5-40 µM
[14] = test system: PC-12; assay: Neuroprotective activity against H2O2-induced neurotoxicity in rat PC-12 cells assessed as increase in HO-1 level at 2.5 to 40 uM by Western blot analysis; format: functional, cell-based; conditions: dose 2.5-40 µM
[15] = test system: BV-2; assay: Anti-inflammatory activity against mouse BV-2 cells assessed as inhibition of LPS-induced NF-kappaB p65 phosphorylation pretreated for 3 hrs followed by LPS addition measured after 24 hrs by Western blot analysis; format: functional, cell-based; conditions: dose 3-30 µM, time 27.0 hrs
[16] = test system: BV-2; assay: Anti-inflammatory activity against mouse BV-2 cells assessed as inhibition of LPS-induced p-JNK activation at 30 uM pretreated for 3 hrs followed by LPS addition measured after 24 hrs; format: functional, cell-based; conditions: time 27.0 hrs
[17] = test system: PC-12; assay: Induction of neuronal differentiation in rat PC-12 cells assessed as increase in neurite bearing cells incubated for 48 hrs in presence of NGF by microscopic analysis; format: functional, cell-based; conditions: dose 1-10 µM
[18] = Induction of neuronal differentiation in rat PC-12 cells assessed as neurite growth at 10 uM incubated for 48 hrs in presence of NGF by microscopic analysis (reference value: 8.39 +/- 0.03 %); format: functional
[19] = test system: PC-12; assay: Induction of neuronal differentiation in rat PC-12 cells at 10 uM incubated for 48 hrs by microscopic analysis; format: functional, cell-based
[20] = Induction of neuronal differentiation in rat PC-12 cells assessed as neurite growth by measuring fold change at 10 uM incubated for 48 hrs in presence of NGF by microscopic analysis relative to NGF; format: functional

For `CC(C)=CC(=O)[C@@H]1[C@H]2c3c(O)cc(C)cc3O[C@@]3(C)CCC[C@]1(C)[C@@H]23`, the Activity [1] was “Dose-dependent-effect; Exhibited More Potency Than Quercetin”, the inhibition [2] was “Active; Exhibited Mild Inhibition” and the Activity [3] was “>=18.7%”. The IC50 [4] was 17.5 µM, the Activity [5] was “Dose-dependent-effect” and the Activity [6] was “Dose-dependent-effect; Exhibited More Potency Than Quercetin”. The Activity [7] was “Active; Activity Was Comparable To That Of Ngf”, the Activity [8] was “Active; Activity Was Comparable With Quercetin At 50 Um” and the Activity [9] was “Dose-dependent-effect; Activity Was Comparable To That Of Ngf”. For the same molecule, the inhibition [10] was “Active; Activity Was Comparable To That Of Quercetin”.

In the case of `C=C(C)[C@@H](O)CC[C@@]1(C)[C@@H]2CC[C@]3(C)Oc4cc(C)cc(O)c4[C@H]1[C@H]23`, the Activity [7] is reported as “Active; Capable Of Rescuing Cell Injury To Greater Extent”.

With `CC(C)=CC(=O)C[C@]1(C)Oc2cc(C)cc3c2[C@H]2C[C@](C)(CC[C@H]21)O3` the Activity [1] was “Active”, the Activity [3] was “>=15.2%” and the Activity [11] was ~20%. The Activity [12] was “Active; Activity Was Comparable To That Of Ngf”, the Activity [13] was “Active; Exhibited More Activity Than That Of Positive Group” and the IC50 [4] was 15.7 µM. For the same molecule, the Activity [6] was “Active”, the Activity [7] was “Active; Activity Was Comparable To That Of Ngf” and the Activity [14] was “Active; Exhibited More Activity Than That Of Positive Group”. The inhibition [10] was “Active; Activity Was Comparable To That Of Quercetin” and the inhibition [15] was “Dose-dependent-effect”.

For `C/C(=C\CC/C(C)=C/CC[C@@]1(C)C=Cc2c(O)cc(C)cc2O1)CO`, the Activity [1] was “Dose-dependent-effect”, the IC50 [4] was 15.8 µM and the Activity [6] was “Dose-dependent-effect”. The inhibition [16] was “Active; Exhibited Mild Inhibition”.

In the case of `COC(C)(C)C/C=C/C(C)=C/CC[C@@]1(C)C=Cc2c(O)cc(C)cc2O1`, the Activity [17] is reported as “Dose-dependent-effect”, the Activity [18] is reported as 22.93% and the Activity [19] is reported as “Active”. The “fold change (FC)” value [20] was ~3.

Work on `C/C(=C\Cc1c(O)cc(C)cc1O)CC/C=C(\C)CC(=O)CC(C)C` yielded an IC50 [4] of 20 µM.

`C/C(=C\CC[C@@]1(C)C=Cc2c(O)cc(C)cc2O1)CC(=O)CC(C)C` gave an IC50 [4] of 21.3 µM.

In the case of `Cc1cc(O)c2c(c1)O[C@@]1(C)CC[C@@H](C(C)(C)O)[C@@H]2C1`, the Activity [7] is reported as “Active; Capable Of Rescuing Cell Injury To Greater Extent”.

In the case of `C=C(C)[C@@H]1CC[C@]2(C)Oc3cc(C)cc(O)c3C[C@H]12`, the Activity [12] is reported as “Active; Activity Was Comparable To That Of Ngf”, the IC50 [4] is reported as > 30 µM and the Activity [7] is reported as “Active; Activity Was Comparable To That Of Ngf”.

In the case of `COC(C)(C)CC(=O)[C@@H]1[C@H]2c3c(O)cc(C)cc3O[C@@]3(C)CCC[C@]1(C)[C@@H]23`, the Activity [17] is reported as “Dose-dependent-effect”, the Activity [12] is reported as “Active; Activity Was Comparable To That Of Ngf” and the Activity [7] is reported as “Active; Activity Was Comparable To That Of Ngf”. The Activity [19] was “Active”.

For `Cc1cc(O)c2c(c1)O[C@@]1(C)CCC[C@@]3(C)[C@H](C(=O)CC(C)C)[C@@H]2[C@H]31`, the Activity [17] was “Dose-dependent-effect”, the Activity [12] was “Active” and the IC50 [4] was 28.2 µM. For the same molecule, the Activity [7] was “Active; Capable Of Rescuing Cell Injury To Greater Extent” and the Activity [19] was “Active”.

For `O=c1c(O)c(-c2ccc(O)c(O)c2)oc2cc(O)cc(O)c12` [QUERCETIN], the IC50 [4] was 11.8 µM.

`C=C(C)[C@@H](O)CC/C(C)=C/CC[C@@]1(C)C=Cc2c(O)cc(C)cc2O1` showed an IC50 [4] of 25.2 µM.

In the case of `CC(C)=CC[C@H](O)/C(C)=C/CC[C@@]1(C)C=Cc2c(O)cc(C)cc2O1`, the Activity [17] is reported as “Dose-dependent-effect”, the IC50 [4] is reported as 19.9 µM and the Activity [19] is reported as “Active”.

Work on `C/C(=C/CC/C(C)=C/CC[C@@]1(C)C=Cc2c(O)cc(C)cc2O1)CO` yielded an IC50 [4] of 11.3 µM.

With `Cc1cc(O)c2c(c1)O[C@@]1(C)CC[C@H]3O[C@@H]2[C@@H]1C3(C)C` the Activity [17] was “Dose-dependent-effect”, the Activity [12] was “Active; Activity Was Comparable To That Of Ngf” and the Activity [18] was 21.85%. For the same molecule, the IC50 [4] was > 30 µM, the Activity [7] was “Active; Activity Was Comparable To That Of Ngf” and the Activity [19] was “Active”. For the same molecule, the “fold change (FC)” value [20] was ~3.

In the case of `C=C(C)[C@H](O)CC[C@@]1(C)[C@@H]2CC[C@]3(C)Oc4cc(C)cc(O)c4[C@H]1[C@H]23`, the Activity [12] is reported as “Active; Activity Was Comparable To That Of Ngf”, the IC50 [4] is reported as 22.1 µM and the Activity [7] is reported as “Active; Activity Was Comparable To That Of Ngf”.

With `CC(C)=CCC/C(C)=C/CC/C(C)=C/Cc1c(O)cc(C)cc1O` [GRIFOLIN] the Activity [13] was “Active”, the IC50 [4] was 18.9 µM and the Activity [14] was “Active”.
